Test results taken from PubChem BioAssay AID2060495 (Molecular Pharmacology Branch, DTP, NCI, 2025).

Tested on: 521955-158-R2-J5-PDC complex spheroid viability
Assay: Anticancer human tumor 521955-158-R2-J5-PDC patient-derived pancreatic carcinoma cell line growth inhibition [GQUAD]
Settings: for IC50: curve of first compound; for viability, T/C: stronger effect = lower value
In short: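 Viability of tumor cells grown as complex spheroids with endothelial and stromal cells, exposed to drug combinations. Top concentration at or near clinical Cmax (else 10 microM), diluted in half-log increments.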

[1] = second compound 0.0316 µM, first compound 0.0316 µM
[2] = second compound 0.0316 µM, first compound 0.316 µM
[3] = second compound 0.1 µM, first compound 0.0316 µM
[4] = second compound 0.1 µM, first compound 0.316 µM
[5] = second compound 0.316 µM, first compound 0.0316 µM
[6] = second compound 0.316 µM, first compound 0.316 µM
[7] = second compound 1 µM, first compound 0.0316 µM
[8] = second compound 1 µM, first compound 0.316 µM
[9] = second compound 3.16 µM, first compound 0.0316 µM
[10] = second compound 3.16 µM, first compound 0.316 µM
[11] = second compound 10 µM, first compound 0.0316 µM
[12] = second compound 10 µM, first compound 0.316 µM
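Also: spheroids exposed to agents for one week before reading.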
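For viability, T/C in this document: 100% = DMSO vehicle control viability.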

## Cc1[nH]c2ccccc2c1CCNCc1ccc(/C=C/C(=O)NO)cc1 + Cc1[nH]c2ccc(F)cc2c1-c1nc2c3cccnc3c3ncccc3c2[nH]1
Second compound 0.0316 µM
  IC50: 112 nM
Second compound 0.1 µM
  IC50: 156 nM
Second compound 0.316 µM
  IC50: 137 nM
Second compound 1 µM
  IC50: 224 nM
Second compound 3.16 µM
  IC50: 207 nM
Second compound 10 µM
  IC50: 157 nM
Second compound 0.0316 µM, first compound 0.000999 µM
  viability, T/C: 116%
Second compound 0.0316 µM, first compound 0.00316 µM
  viability, T/C: 120%
Second compound 0.0316 µM, first compound 0.00999 µM
  viability, T/C: 132%
[1]
  viability, T/C: 102%
Second compound 0.0316 µM, first compound 0.0999 µM
  viability, T/C: 54.1%
[2]
  viability, T/C: 23.1%
Second compound 0.1 µM, first compound 0.000999 µM
  viability, T/C: 106%
Second compound 0.1 µM, first compound 0.00316 µM
  viability, T/C: 109%
Second compound 0.1 µM, first compound 0.00999 µM
  viability, T/C: 122%
[3]
  viability, T/C: 116%
Second compound 0.1 µM, first compound 0.0999 µM
  viability, T/C: 64.5%
[4]
  viability, T/C: 27.3%
Second compound 0.316 µM, first compound 0.000999 µM
  viability, T/C: 96.4%
Second compound 0.316 µM, first compound 0.00316 µM
  viability, T/C: 108%
Second compound 0.316 µM, first compound 0.00999 µM
  viability, T/C: 117%
[5]
  viability, T/C: 114%
Second compound 0.316 µM, first compound 0.0999 µM
  viability, T/C: 58.3%
[6]
  viability, T/C: 27.8%
Second compound 1 µM, first compound 0.000999 µM
  viability, T/C: 105%
Second compound 1 µM, first compound 0.00316 µM
  viability, T/C: 123%
Second compound 1 µM, first compound 0.00999 µM
  viability, T/C: 131%
[7]
  viability, T/C: 106%
Second compound 1 µM, first compound 0.0999 µM
  viability, T/C: 102%
[8]
  viability, T/C: 27.9%
Second compound 3.16 µM, first compound 0.000999 µM
  viability, T/C: 106%
Second compound 3.16 µM, first compound 0.00316 µM
  viability, T/C: 110%
Second compound 3.16 µM, first compound 0.00999 µM
  viability, T/C: 118%
[9]
  viability, T/C: 109%
Second compound 3.16 µM, first compound 0.0999 µM
  viability, T/C: 92%
[10]
  viability, T/C: 25.6%
Second compound 10 µM, first compound 0.000999 µM
  viability, T/C: 92.4%
Second compound 10 µM, first compound 0.00316 µM
  viability, T/C: 105%
Second compound 10 µM, first compound 0.00999 µM
  viability, T/C: 110%
[11]
  viability, T/C: 115%
Second compound 10 µM, first compound 0.0999 µM
  viability, T/C: 66.3%
[12]
  viability, T/C: 24.7%

## Nc1ccn(C2OC(CO)C(O)C2(F)F)c(=O)n1 (centres undefined) + Cc1[nH]c2ccc(F)cc2c1-c1nc2c3cccnc3c3ncccc3c2[nH]1
Second compound 0.0316 µM
  IC50: 421 nM
Second compound 0.1 µM
  IC50: 424 nM
Second compound 0.316 µM
  IC50: 436 nM
Second compound 1 µM
  IC50: 449 nM
Second compound 3.16 µM
  IC50: 485 nM
Second compound 10 µM
  IC50: 467 nM
[1]
  viability, T/C: 78.3%
Second compound 0.0316 µM, first compound 0.1 µM
  viability, T/C: 83.1%
[2]
  viability, T/C: 61.9%
Second compound 0.0316 µM, first compound 1 µM
  viability, T/C: 13.8%
Second compound 0.0316 µM, first compound 3.16 µM
  viability, T/C: 10.5%
Second compound 0.0316 µM, first compound 10 µM
  viability, T/C: 7.49%
[3]
  viability, T/C: 77.1%
Second compound 0.1 µM, first compound 0.1 µM
  viability, T/C: 79.2%
[4]
  viability, T/C: 58.9%
Second compound 0.1 µM, first compound 1 µM
  viability, T/C: 22.3%
Second compound 0.1 µM, first compound 3.16 µM
  viability, T/C: 10.8%
Second compound 0.1 µM, first compound 10 µM
  viability, T/C: 6.82%
[5]
  viability, T/C: 89%
Second compound 0.316 µM, first compound 0.1 µM
  viability, T/C: 75.3%
[6]
  viability, T/C: 64.1%
Second compound 0.316 µM, first compound 1 µM
  viability, T/C: 15%
Second compound 0.316 µM, first compound 3.16 µM
  viability, T/C: 10.6%
Second compound 0.316 µM, first compound 10 µM
  viability, T/C: 7.06%
[7]
  viability, T/C: 88.9%
Second compound 1 µM, first compound 0.1 µM
  viability, T/C: 80.4%
[8]
  viability, T/C: 61.6%
Second compound 1 µM, first compound 1 µM
  viability, T/C: 25.1%
Second compound 1 µM, first compound 3.16 µM
  viability, T/C: 9.92%
Second compound 1 µM, first compound 10 µM
  viability, T/C: 7.24%
[9]
  viability, T/C: 92.8%
Second compound 3.16 µM, first compound 0.1 µM
  viability, T/C: 93.3%
[10]
  viability, T/C: 66.4%
Second compound 3.16 µM, first compound 1 µM
  viability, T/C: 21.8%
Second compound 3.16 µM, first compound 3.16 µM
  viability, T/C: 12.9%
Second compound 3.16 µM, first compound 10 µM
  viability, T/C: 10.2%
[11]
  viability, T/C: 109%
Second compound 10 µM, first compound 0.1 µM
  viability, T/C: 104%
[12]
  viability, T/C: 61.7%
Second compound 10 µM, first compound 1 µM
  viability, T/C: 25.3%
Second compound 10 µM, first compound 3.16 µM
  viability, T/C: 8.99%
Second compound 10 µM, first compound 10 µM
  viability, T/C: 7.65%
